Measurements as given in ChEMBL document CHEMBL2062404, “Purification and antiradical properties of the structural unit of betalains” (J Nat Prod, 2012).
Calls of active or inactive are those of the source. No cut-off for these calls is given here.

What was measured:
Type in all cases: functional
[1] = Antioxidant activity against ABTS radical assessed as trolox equivalent after 24 hr at pH 7
[2] = Antioxidant activity assessed as ferric ion reduction by 2,4,6-tris(2- pyridyl)-s-triazine-based spectrophotometry
[3] = Antioxidant activity against ABTS radical assessed as trolox equivalent at 50 uM after 24 hr at pH >5.5
[4] = Antioxidant activity against ABTS radical assessed as trolox equivalent at 50 uM after 24 hr at pH 5.5

## Oc1ccc(/C=C/c2cc(O)cc(O)c2)cc1
[1]
  Activity: 2.7 equiv

## O=C/C=C1/C=C(C(=O)O)N[C@H](C(=O)O)C1
[1]
  Activity: 2.7 equiv
[2]
  Activity: Active
[3]
  Activity: Active
[4]
  Activity: inactive
